The values that follow come from US20260132115A1, “SUBSTITUTED 3-FLUOROBENZENEPROPANOATE COMPOUND AND PREPARATION METHOD THEREFOR, PHARMACEUTICAL COMPOSITION THEREOF, AND USE THEREOF” (TIANJIN GUDUI BIO-PHARM CO., LTD., priority 2022, published 2026).

Like-named read-outs stand apart in the source and are kept apart here.

The nature of data set [1]: In vivo pharmacokinetic assay in rats (gavage, plasma). To be noted: female, Sprague Dawley, po, prototype drug in rat plasma, dose equimolar to 50 mg/kg flurbiprofen; for half-life: read-out: Prototype Drug t1/2 (converted). How it is done:
Experimental method: Adult female Sprague Dawley rats, aged 8-10 weeks and weighing 200±20 g, were randomly grouped, with 3 rats in each group. Rats in each of the groups were administered by gavage at a dose of 50 mg/kg of flurbiprofen and an equimolar dose of other example compounds to 50 mg/kg of flurbiprofen, respectively. After gavage administration, blood was collected at 0.0833 […], and 24 h into sodium heparin anticoagulant tubes, respectively. The blood was collected by the following method: 250 μL of blood were collected from the orbital venous plexuses of the rats. After blood collection, the blood samples were centrifuged at 12000 rpm in a centrifuge for 5 min. All plasma was aspirated into a 1.5-mL centrifuge tube, and the plasma was stored in a refrigerator at -80° C. The pharmacokinetic parameters were determined by the external standard curve method. Sample processing: after the cryopreserved samples were removed and restored to room temperature, the samples were vortexed evenly and then diluted two folds with methanol; the sample solution was diluted 5 folds by adding a mixed extractant of 0.5% formic acid-containing acetonitrile:methanol=7:3, and subjected to vortex oscillation for 1 min. Subsequently, the resultant was centrifuged at 4° C. and 12000 rpm for 10 min, and then 5 μL of the supernatant was measured for assay. The pharmacokinetic parameters in the Examples were calculated using the Winnonlin software.

Data set [2] deals with λ-Carrageenan-Induced Rat Toe Swelling. Briefly: Anti-inflammatory effect on λ-carrageenan-induced rat toe swelling. The format is in vivo, SD rats. The conditions noted are these: Rattus norvegicus, ip, 10 mg/kg intraperitoneal, 1 h before 1% λ-carrageenan. How it is done: Experimental method: Male SD rats weighing 150-160 g were randomly grouped, with 10 rats in each group. The rats were intraperitoneally injected with saline, the compounds of the present disclosure, and the control drug flurbiprofen or flurbiprofen axetil respectively, all of which were administered at a dose of 10 mg/kg and a dosing volume of 10 μL/g. At 1 h after administration, 100 μL of 1% λ-carrageenan was injected into the right hind toe of each rat to induce inflammation. Afterwards, the paw volume was measured every 1 h using a paw volume meter to calculate the swelling inhibition rate.

For data set [3], the system named is Dry Yeast-Induced Rat Fever Models. Briefly: Antipyretic effect on dry yeast-induced fever in rats. It counts as in vivo, SD rats. The conditions noted are these: rectal temperature, 10 mg/kg intraperitoneal, 20 min before 20% dry yeast s.c. Here is the method:
Experimental method: Male SD rats, aged 4 weeks, were randomly grouped, with 10 rats in each group. […] The rats were intraperitoneally injected with saline, the compounds of the present disclosure or the control drug flurbiprofen respectively, all of which were administered at a dose of 10 mg/kg and a dosing volume of 10 μL/g. At 20 min after administration, 20% active dry yeast suspension was injected subcutaneously. After modeling, the rectal temperatures were measured at 4 h and 8 h.

For a further data set, the system named is rats with CIA. Briefly: Analgesic and anti-inflammatory effects on collagen-induced rheumatoid arthritis (CIA) in rats. The format is in vivo, Lewis rats. The conditions noted are these: for paw volume effect as compared to the flurbiprofen group: left hind limb, 14-day intervention, 10 mg/kg (FIG. 3); for MWT effect as compared to the flurbiprofen group: left lower limb, 13-day intervention, 10 mg/kg (FIG. 4). How it is done:
Experimental method: Female Lewis rats, aged 6-8 weeks, were randomly grouped, with 8 rats in each group. Under the ambient temperature of 20.5° C. to 24.5° C. and the humidity of 40% to 70%, the light period was 12-h bright and 12-h dark. Type II collagen was mixed with Freund's incomplete adjuvant (IFA) at a ratio of 1:1 and fully emulsified on ice before use. 100 μL of the mixed solution was injected intradermally at the part 2 to 3 cm from the base of the rat tail, and 50 μL of the mixed solution was injected into the bases of both hind limbs separately. The rats in the blank control group were injected with an equal volume of saline. IFA was used for re-immunization 7 days later. […] Rats with a total score of more than 2 on both hind limbs were selected and randomly divided into a model group, a flurbiprofen group, a compound 33 group, a compound 2 group, a compound 13 group, a compound 20 group, and a compound 35 group according to the body weight, score and paw volume, and furthermore a blank control group was set up, with 8 rats in each group. The dosing […] was […], and the dosing time was 14 days. A corresponding volume of solvent was administered in the model group and the blank control group.
Test indicators: body weight, arthritis score, hind limb paw volume, and mechanical foot threshold (MWT).
Standard for arthritis score: 0=normal; 1=erythema and slight swelling observed at the ankle joint; 2=erythema and slight swelling observed from the ankle joint to the metatarsal joint or the metacarpal joint; 3=erythema and moderate swelling observed from the ankle joint to the metatarsophalangeal joint or the metacarpal joint; 4=erythema and severe swelling observed from the ankle joint to the metatarsal joint; the total score of all (four) paws was calculated, and the sum of the arthritis indices was up to 16 per rat.

The next data set has as its system Eca-109. Briefly: Antitumor potency, MTT method, Eca-109. It counts as cell-based. The conditions noted are these: Homo sapiens, 72 h incubation. Here is the method:
(§1) Experimental method: The antitumor potency was tested by the MTT method. Tumor cells at the logarithmic phase were collected. The concentration of the cell suspension was adjusted. 100 μL of the cell suspension was added to each well. Cell plating was carried out and the cell density was adjusted to 1000 to 10000/well (the marginal wells were filled with sterile PBS). The cells were incubated at 5% CO2 and 37° C. until the cells adhered to the wall (96-well flat-bottomed plate). Drugs of different concentration gradients were added, 100 μL per well. Four replicates were set up. Under the conditions of 5% CO2 and 37° C., the cells were incubated for 72 h and observed under an inverted microscope. The prepared MTT solution (5 mg/mL) was added to the 96-well plate, 20 μL per well, mixed well, and incubated for 4 h under the conditions of 37° C. and 5% CO2. Afterwards, the liquid in the plate was discarded. 150 μL of DMSO was added to each well and oscillated for 3 min on a microplate reader. The OD value (optical density) was detected at 490 nm.
(§2) The inhibition rate of the drug against the tumor cell growth was calculated according to the following formula: […]

The subject of another data set is MM.1S. Briefly: Antitumor potency, MTT method, MM.1S. The format is cell-based. The conditions noted are these: Homo sapiens, MM1.S, 72 h incubation. Here is the method: as §1, §2
On the technique in general: Tetrazolium dyes change colour on reduction, which living cells bring about.

The next data set has as its system NUGC-4. Briefly: Antitumor potency, MTT method, NUGC-4. It counts as cell-based. The conditions noted are these: Homo sapiens, 72 h incubation. Here is the method:
as §1, §2

The subject of the next data set is U87. Briefly: Antitumor potency, MTT method, U87. To be noted: Homo sapiens, U-87 MG, 72 h incubation. It counts as cell-based. Here is the method: as §1, §2
For the next data set, the system named is U251. Briefly: Antitumor potency, MTT method, U251. The format is cell-based. The conditions noted are these: Homo sapiens, U-251, 72 h incubation. How it is done:
as §1, §2

For another data set, the system named is H460. Briefly: Antitumor potency, MTT method, H460. The format is cell-based. To be noted: Homo sapiens, NCI-H460, 72 h incubation. Here is the method:
as §1, §2

The mark [4] stands for this setting: 6 h, read-out: Toe Swelling Inhibition Rate at 6 h.
Where [5] appears, read: 24 h, read-out: Toe Swelling Inhibition Rate at 24 h.

The term AUC denotes concentration integrated over time. High values mean high exposure, low ones low exposure. Usually Cmax stands for the maximum level reached in the sampled fluid or tissue. As a reminder, the IC50 is the midpoint of a concentration-inhibition curve. Low values mean greater potency, high ones weaker potency. In data set [1], `CC(C(=O)OCOC(=O)N1CCOCC1)c1ccc(-c2ccccc2)c(F)c1` (stereo not drawn) [Compound 2] gave an AUC of 183 ± 85.9 ng·h/mL. Further, the Cmax in data set [1] was found to be 27.1 ± 7.2 ng/mL. In addition, the half-life in [1] was 14 ± 9.88 h. The figures for the inhibition in vivo at 10 mg/kg in data set [2] (setting [4]) and in data set [2] (setting [5]) were 42.9% and 34.1%, respectively. The “Temp. at 4 h After Dosing” value in data set [3] was 37.10 ± 0.17 °C. Moreover, the “Temp. at 8 h After Dosing” value in [3] came out at 37.32 ± 0.27 °C. Also, the “paw volume effect as compared to the flurbiprofen group” value in the data set on rats with CIA was “better effects”. Also, the “MWT effect as compared to the flurbiprofen group” value in the data set with rats with CIA is on record as “slightly better or better effects”. In addition, the IC50 is 55.7 µM in the data set on Eca-109; 41.7 µM with MM.1S; 60 µM in the data set on NUGC-4; above 100 µM in the data set with U87; above 100 µM with U251; 90 µM in the data set with H460.

In the case of `CCCN(CCC)C(=O)OCOC(=O)C(C)c1ccc(-c2ccccc2)c(F)c1` (stereo not drawn) [Compound 13], the inhibition in vivo at 10 mg/kg worked out at 46% in [2] (setting [4]) and 37% in data set [2] (setting [5]). Moreover, the “Temp. at 4 h After Dosing” value in [3] was determined as 37.10 ± 0.172 °C. In addition, in [3], the “Temp. at 8 h After Dosing” value was 37.32 ± 0.27 °C. For the same compound, in the data set with rats with CIA, the “paw volume effect as compared to the flurbiprofen group” value is reported as “better effects”. The “MWT effect as compared to the flurbiprofen group” value with rats with CIA was “slightly better or better effects”. In addition, the half-inhibitory concentration (IC50) in the data set with Eca-109 is 30.7 µM; with MM.1S, 5.39 µM; in the data set on NUGC-4 it was 40.1 µM; with U87, 80.5 µM; in the data set on U251, 73.9 µM; in the data set with H460, 47.9 µM.

For the compound `CC(C(=O)OCOC(=O)N1CCC(O)CC1)c1ccc(-c2ccccc2)c(F)c1` (stereo not drawn) [Compound 20], the inhibition in vivo at 10 mg/kg in [2] (setting [4]) came to 52.7%; in [2] (setting [5]) it was 45%. In [3], the “Temp. at 4 h After Dosing” value was 37.09 ± 0.25 °C. In addition, the “Temp. at 8 h After Dosing” value in [3] is 37.27 ± 0.26 °C. Further, in the data set with rats with CIA, the “paw volume effect as compared to the flurbiprofen group” value is given as “better effects”. In the data set with rats with CIA, the “MWT effect as compared to the flurbiprofen group” value is reported as “slightly better or better effects”. Besides, the concentration for half-maximal inhibition (IC50) with Eca-109 was 33.2 µM; in the data set on MM.1S it was 42.8 µM; in the data set with NUGC-4, 50.4 µM; in the data set with U87, 54.6 µM; in the data set with U251 it was 5.84 µM; in the data set with H460, 35.9 µM.

As for `Cc1cc(CO)c(O)c(COC(=O)C(C)c2ccc(-c3ccccc3)c(F)c2)c1` (stereo not drawn) [Compound 33], the AUC in data set [1] worked out at 8.75 ± 1.53 ng·h/mL. The compound further gave a Cmax in data set [1] of 1.56 ± 0.509 ng/mL. For the same compound, in data set [1], the half-life is 9.08 ± 1.44 h. The inhibition in vivo at 10 mg/kg in data set [2] (setting [4]) was 55.5%; in [2] (setting [5]), 35.8%. The “Temp. at 4 h After Dosing” value in data set [3] is 37.18 ± 0.18 °C. The “Temp. at 8 h After Dosing” value in [3] was found to be 37.27 ± 0.28 °C. For the same compound, in the data set with rats with CIA, the “paw volume effect as compared to the flurbiprofen group” value is “better effects”. Besides, in the data set with rats with CIA, the “MWT effect as compared to the flurbiprofen group” value is recorded as “slightly better or better effects”. Moreover, the IC50 in the data set on Eca-109, with MM.1S, with NUGC-4, with U87, in the data set with U251 and with H460 was above 100 µM in each case.

Turning to `CC(C(=O)OCOC(=O)c1ccc(O)cc1)c1ccc(-c2ccccc2)c(F)c1` (stereo not drawn) [Compound 35], the inhibition in vivo at 10 mg/kg in data set [2] (setting [4]) was 54.6%; in data set [2] (setting [5]) it was 49.8%. For the same compound, in data set [3], the “Temp. at 4 h After Dosing” value turned out to be 37.15 ± 0.21 °C. The “Temp. at 8 h After Dosing” value in data set [3] turned out to be 37.29 ± 0.30 °C. Also, the “paw volume effect as compared to the flurbiprofen group” value in the data set on rats with CIA was “better effects”. The “MWT effect as compared to the flurbiprofen group” value with rats with CIA is “slightly better or better effects”. Also, the IC50 came to 29.6 µM with Eca-109; 45.7 µM in the data set with MM.1S; 41.8 µM in the data set on NUGC-4; 60.3 µM in the data set with U87; 7.33 µM in the data set with U251; 32.6 µM with H460.
